Laboratory results published in patent publication US4178442A, “Novel cinnamoyles piperazines and homopiperazines, the method of preparing them and their application in therapeutics” (Delalande S. A., priority 1977, dated 1979).
Counter-ions that a name gives are not always drawn. Like-named read-outs stand apart in the source and are kept apart here.

Legend:
[1] = system: anaesthetized dog; experiment: Antiangorous activity on anaesthetized dog: consumption of oxygen in the left ventricule and cardiac effort (KATZ's index); assay type: in vivo
Summary of the method: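 Katz index taken as mean arterial pressure multiplied by ECG (D2) heart rate, and myocardial O2 use as coronary sinus flow via modified Morawitz cannula times coronary arteriovenous O2 difference. Animals: pentobarbital-anaesthetized dogs (30 mg/kg i.v.), test compounds infused slowly intravenously.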

[2] = in vivo; settings: iv; for mortality: read-out: Toxicity (Mortality); for LD50: read-out: Toxicity: LD50
Source text: *LD50 or percentage of mortality which is given between brackets

[3] = Canis lupus familiaris, iv, 2.5 mg/kg i.v. slow perfusion, read-out: Diminution in consumption of O2
[4] = Canis lupus familiaris, iv, 2.5 mg/kg i.v. slow perfusion, read-out: Diminution in the cardiac effort (IK)
[5] = Canis lupus familiaris, iv, 0.15 mg/kg i.v. slow perfusion, read-out: Diminution in consumption of O2
[6] = Canis lupus familiaris, iv, 0.15 mg/kg i.v. slow perfusion, read-out: Diminution in the cardiac effort (IK)

CNC(=O)Nc1ccc(OCC(O)CN2CCN(C(=O)/C=C/c3cc(OC)c(OC)c(OC)c3)CC2)cc1C (stereo not shown) [770 898]
Diminution in consumption of O2: in time ([1]; 2.5 mg/kg i.v. slow perfusion): 45 min | Diminution in the cardiac effort (IK): in time ([1]; 2.5 mg/kg i.v. slow perfusion): 38 min | inhibition in vivo at 2.5 mg/kg [1, 3]: 45% | inhibition in vivo at 2.5 mg/kg [1, 4]: 36% | mortality ([2]; 400 mg/kg i.v.): 0%

COc1cc(/C=C/C(=O)N2CCN(CC(O)COc3ccc(OC(C)=O)c4c3OCCO4)CC2)cc(OC)c1OC (stereo not shown) [780 004]
Diminution in consumption of O2: in time ([1]; 1.25 mg/kg i.v. slow perfusion): 30 min | Diminution in the cardiac effort (IK): in time ([1]; 1.25 mg/kg i.v. slow perfusion): 15 min | inhibition in vivo at 1.25 mg/kg ([1]; Canis lupus familiaris, iv, 1.25 mg/kg i.v. slow perfusion, read-out: Diminution in consumption of O2): 22% | inhibition in vivo at 1.25 mg/kg ([1]; Canis lupus familiaris, iv, 1.25 mg/kg i.v. slow perfusion, read-out: Diminution in the cardiac effort (IK)): 14% | mortality ([2]; 400 mg/kg i.v.): 10%

CCCCNC(=O)Nc1ccc(OCC(O)CN2CCN(C(=O)/C=C/c3cc(OC)c(OC)c(OC)c3)CC2)c2c1OCCO2 (stereo not shown) [770 634]
inhibition in vivo at […] [1, 5]: 69% | inhibition in vivo at […] [1, 6]: 27% | mortality ([2]; 400 mg/kg i.v.): 30%

COc1cc(/C=C/C(=O)N2CCN(CC(O)COc3ccc(C(C)C)cc3)CC2)cc(OC)c1OC (stereo not shown) [770 858]
inhibition in vivo at […] [1, 5]: 16% | inhibition in vivo at […] [1, 6]: 15% | LD50 [2]: 260 mg/kg

COc1cc(/C=C/C(=O)N2CCN(CC(O)COc3ccc(C(C)=O)c4c3OCCO4)CC2)cc(OC)c1O (stereo not shown) [770 274, 1-[3-(4-acetyl-2,3-ethylenedioxy)phenoxy-2-hydroxy]propyl-4-(3,5-dimethoxy-4-hydroxycinnamoyl)piperazine oxalate]
Diminution in consumption of O2: in time ([1]; 2.5 mg/kg i.v. slow perfusion): 30 min | Diminution in the cardiac effort (IK): in time ([1]; 2.5 mg/kg i.v. slow perfusion): 15 min | inhibition in vivo at 2.5 mg/kg [1, 3]: 41% | inhibition in vivo at 2.5 mg/kg [1, 4]: 10% | mortality ([2]; 336 mg/kg i.v.): 30%

COc1cc(C(C)=O)ccc1OCC(O)CN1CCN(C(=O)/C=C/c2cc(OC)c(OC)c(OC)c2)CC1 (stereo not shown) [770 073]
Diminution in consumption of O2: in time ([1]; 0.12 mg/kg i.v. slow perfusion): 30 min | Diminution in the cardiac effort (IK): in time ([1]; 0.12 mg/kg i.v. slow perfusion): 15 min | inhibition in vivo at 0.12 mg/kg ([1]; Canis lupus familiaris, iv, 0.12 mg/kg i.v. slow perfusion, read-out: Diminution in consumption of O2): 24% | inhibition in vivo at 0.12 mg/kg ([1]; Canis lupus familiaris, iv, 0.12 mg/kg i.v. slow perfusion, read-out: Diminution in the cardiac effort (IK)): 16% | LD50 [2]: 158 mg/kg

CNC(=O)Nc1ccc(OCC(O)CN2CCN(C(=O)/C=C/c3cc(OC)c(OC)c(OC)c3)CC2)c2c1OCCO2 (stereo not shown) [770 077]
inhibition in vivo at […] [1, 5]: 44% | inhibition in vivo at […] [1, 6]: 28% | mortality ([2]; 400 mg/kg i.v.): 0%

COc1cc(/C=C/C(=O)N2CCN(CC(O)COc3ccccc3C#N)CC2)cc(OC)c1OC (stereo not shown) [760 389]
Diminution in consumption of O2: in time ([1]; 4.5 mg/kg i.v. slow perfusion): 60 min | Diminution in the cardiac effort (IK): in time ([1]; 4.5 mg/kg i.v. slow perfusion): 60 min | inhibition in vivo at 4.5 mg/kg ([1]; Canis lupus familiaris, iv, 4.5 mg/kg i.v. slow perfusion, read-out: Diminution in consumption of O2): 70% | inhibition in vivo at 4.5 mg/kg ([1]; Canis lupus familiaris, iv, 4.5 mg/kg i.v. slow perfusion, read-out: Diminution in the cardiac effort (IK)): 55% | LD50 [2]: 245 mg/kg

COc1cc(/C=C/C(=O)N2CCN(CC(O)COc3ccc(C(C)(C)C)cc3)CC2)cc(OC)c1OC (stereo not shown) [770 859]
Diminution in consumption of O2: in time ([1]; 2.5 mg/kg i.v. slow perfusion): 30 min | Diminution in the cardiac effort (IK): in time ([1]; 2.5 mg/kg i.v. slow perfusion): 60 min | inhibition in vivo at 2.5 mg/kg [1, 3]: 30% | inhibition in vivo at 2.5 mg/kg [1, 4]: 52% | LD50 [2]: 150 mg/kg

COc1cc(/C=C/C(=O)N2CCN(CC(O)COc3ccc(C(C)=O)cc3)CC2)cc(OC)c1OC (stereo not shown) [760 385]
Diminution in consumption of O2: in time ([1]; 2.2 mg/kg i.v. slow perfusion): 15 min | Diminution in the cardiac effort (IK): in time ([1]; 2.2 mg/kg i.v. slow perfusion): 15 min | inhibition in vivo at 2.2 mg/kg ([1]; Canis lupus familiaris, iv, 2.2 mg/kg i.v. slow perfusion, read-out: Diminution in consumption of O2): 65% | inhibition in vivo at 2.2 mg/kg ([1]; Canis lupus familiaris, iv, 2.2 mg/kg i.v. slow perfusion, read-out: Diminution in the cardiac effort (IK)): 16% | mortality ([2]; 351 mg/kg i.v.): 10%

Cc1cccc(C)c1NC(=O)CN1CCN(CCCC(c2ccc(F)cc2)c2ccc(F)cc2)CC1 [LIDOFLAZINE, reference compound]
inhibition in vivo at […] ([1]; Canis lupus familiaris, iv, 1.5 mg/kg i.v. slow perfusion, read-out: Diminution in consumption of O2): 48% | inhibition in vivo at […] ([1]; Canis lupus familiaris, iv, 1.5 mg/kg i.v. slow perfusion, read-out: Diminution in the cardiac effort (IK)): 40% | mortality ([2]; 25 mg/kg i.v.): 50%

CCc1ccc(OCC(O)CN2CCN(C(=O)/C=C/c3cc(OC)c(OC)c(OC)c3)CC2)c2c1OCCO2 (stereo not shown) [770 142]
Diminution in consumption of O2: in time ([1]; 1.1 mg/kg i.v. slow perfusion): 30 min | inhibition in vivo at 1.1 mg/kg ([1]; Canis lupus familiaris, iv, 1.1 mg/kg i.v. slow perfusion, read-out: Diminution in consumption of O2): 29% | LD50 [2]: 116 mg/kg

COc1cc(/C=C/C(=O)N2CCN(CC(O)CSc3ccccc3)CC2)cc(OC)c1OC (stereo not shown) [770 060]
Diminution in consumption of O2: in time ([1]; 2.3 mg/kg i.v. slow perfusion): 23 min | Diminution in the cardiac effort (IK): in time ([1]; 2.3 mg/kg i.v. slow perfusion): 30 min | inhibition in vivo at 2.3 mg/kg ([1]; Canis lupus familiaris, iv, 2.3 mg/kg i.v. slow perfusion, read-out: Diminution in consumption of O2): 58% | inhibition in vivo at 2.3 mg/kg ([1]; Canis lupus familiaris, iv, 2.3 mg/kg i.v. slow perfusion, read-out: Diminution in the cardiac effort (IK)): 35% | LD50 [2]: 195 mg/kg
